Experimental data taken from paper PMC9182405, “Rapid Screening of Lipase Inhibitors in Scutellaria baicalensis by Using Porcine Pancreatic Lipase Immobilized on Magnetic Core–Shell Metal–Organic Frameworks” (Molecules, 2022).

Legend:
[1] = molecular target: T1, porcine pancreatic lipase (PPL) (Sus scrofa, UniProt P00591); assay: p-nitrophenol ester hydrolysis assay, absorbance at […] nm, free PPL; also ligand fishing with immobilized PPL; type: biochemical
T1 construct: gene PNLIP

[2] = molecular target: T1, porcine pancreatic lipase (PPL); assay: p-nitrophenol ester hydrolysis assay, absorbance at […] nm, free PPL; in ligand fishing some nonspecific adsorption to blank MMOF; type: biochemical

T1 sequence (P00591 whole entry): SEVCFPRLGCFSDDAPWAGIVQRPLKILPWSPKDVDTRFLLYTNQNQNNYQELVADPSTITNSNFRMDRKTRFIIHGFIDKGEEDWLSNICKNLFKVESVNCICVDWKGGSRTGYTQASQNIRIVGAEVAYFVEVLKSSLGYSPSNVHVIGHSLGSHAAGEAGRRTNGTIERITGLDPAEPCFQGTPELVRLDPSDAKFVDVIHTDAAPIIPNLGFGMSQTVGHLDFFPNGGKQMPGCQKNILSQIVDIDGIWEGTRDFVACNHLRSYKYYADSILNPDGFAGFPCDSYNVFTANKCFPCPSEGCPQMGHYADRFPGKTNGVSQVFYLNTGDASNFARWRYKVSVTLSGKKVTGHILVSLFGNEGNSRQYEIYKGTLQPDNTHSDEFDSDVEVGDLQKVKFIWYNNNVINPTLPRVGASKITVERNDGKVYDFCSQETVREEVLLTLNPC

Row | SMILES | IC50 [1] [µM] | IC50 [2] [µM]
1 | O=C(O)[C@H]1O[C@@H](Oc2cc3oc(-c4ccccc4)cc(=O)c3c(O)c2O)[C@H](O)[C@@H](O)[C@@H]1O [compound 3, Baicalin] | 242 ± 5.6 | 
2 | COc1c(O)cc(O)c2c(=O)cc(-c3ccccc3)oc12 [compound 7, Wogonin] |  | 168 ± 8.4
3 | COc1c(O)cc2oc(-c3ccccc3)cc(=O)c2c1O [compound 8, Oroxylin A] | 82.7 ± 3.6 | 
